Where two headings read alike, the source gives them in different places.
What was measured:
[1] = cited from earlier work
[2] = Protonation constants by potentiometric titration; type: physicochemical; details: Potentiometry, 0.1 M KCl, 25 °C, [L] = 1 × 10^−3 M, error 1σ
Description: (§1) The acid-base properties of compounds 1 and 2 were determined to understand their behaviour in aqueous solutions. These studies were performed using potentiometry prompted by pH-UV titration studies and, for compound 1, pH*-NMR titration studies (pH* = pH uncorrected for the isotopic effect).
The titration studies of the compounds were carried out in double-distilled water using a Metrohm 809 Titrando system equipped with a combined glass electrode (Metrohm 6.0224.100) which was calibrated daily for hydrogen concentration using HCl (Merck, Warsow, Poland) (0.004 M) according to the procedure of Irving et al.. The ionic strength was fixed at I = 0.1 M with KCl (POCh). Alkali, CO2-free 0.1017 M KOH solution (POCh) was standardized by titration with potassium hydrogen phthalate (Merck). The ionic product of water under the experimental conditions was 10^−13.77 mol^2·dm^−6. The purity and exact concentration of each ligand were determined by the method of Gran. The titrations were carried out on 2.0 mL samples in a thermostatted cell at 25 ± 0.2 °C under a stream of Ar. The HYPERQUAD2013 computer program was applied to calculate the protonation constants. Triplicate titrations of each ligand (177–222 points) in a concentration of 1.0 × 10^−3 mol·dm^−3 were performed and used for the calculations. The distribution curves of the protonated species of the compounds (marked as L) as a function of pH were calculated using the HySS2009 program.

[3] = Protonation constants by pH-UV (UV-Vis) titration; type: physicochemical; details: 0.1 M KCl, 25 °C, [L] = 7 × 10^−5 M, error 1σ
Description: as §1
The results of the potentiometric studies are supported by spectroscopic determination of the pK values of the studied compounds. The results, obtained from electronic spectra generated in the HypSpec program for the detected species, are presented in Table 2 and Figure S1. […] For compound 1, the band at approximately 215 nm was already present under a very acidic pH value (pH 1.57) (Figure 4). This band is assigned to the protonated 1,2,4-triazole. The band underwent a bathochromic shift to 230 nm when the pH rises, which is assigned to the H4L → H3L^− + H^+ deprotonation process at a pK4 of 4.22 or 4.16 (estimated potentiometrically or spectrophotometrically, respectively). This was the biggest change in absorption for the spectroscopic determination by UV spectrophotometry. This change was the reason for assigning the pK4 value to the deprotonation of 1,2,4-triazole. Adequate changes occur for the spectra of compound 2. […] Generally, spectroscopic titrations (see Figure S23 Supplementary Materials) are in a good agreement with potentiometric titrations and provide similar pK values.
Absorption spectra for the compounds were collected using a Varian Cary 50 spectrophotometer (Varian, Mulgrave, Victoria, Australia) in Quartz Hellma curvets with a 1 cm optical path. The solutions were prepared by dissolving the appropriate concentration of ligands ([L] = 7 × 10^−5 mol·dm^−3) in 0.004 M HCl with 0.1 M ionic strength (KCl). The background electrolyte was used as a baseline reference. Solution pH was changed manually by adding small amounts of concentrated potassium hydroxide and checked the pH using the 913 Metrohm pH meter equipped with a combined glass electrode (Metrohm 6.0224.100, Herisau, Switzerland). The protonation constants and spectral deconvolution were refined using the least squares fitting program HypSpec. Factor analysis by the HypSpec software (http://www.hyperquad.co.uk/) was implemented to characterize the number of species present in the solution.

[4] = test system: mouse macrophage-like J774E cells; assay: Antiproliferative activity, MTT assay; type: cell-based; details: J774E macrophages, 72 h exposure
Description: To screen for potential antiosteoporotic activity of the bisphosphonates, their antiproliferative activity towards in vitro cell cultures was determined. J774E macrophages and osteoclasts are both derived from haematopoietic lineage and are highly endocytic and capable of demineralizing bone particles. Therefore, they are models for studies on the influence of bisphosphonates on the proliferation and activity of […]. For this purpose, mouse macrophage-like J774E cells, originating from the same precursors as the osteoclasts, were used. Such cells are well recognized for being sensitive to bisphosphonates, which likely act by inducing apoptosis in the cells. The J744E cell line was obtained from a cell bank at the Ludwik Hirszfeld Institute of Immunology and Experimental Therapy, Polish Academy of Sciences.
This experiment was performed according to a previously published procedure. To use the cell line, it is necessary to first thaw the cells using a water bath at 37 °C and gentle stirring. The cells were placed into the culture medium. This line was passaged 2 times a week in RPMI (growth medium consisting of 10% FBS, 100 μg/mL streptomycin, 100 U/mL penicillin and 2 mM glutamine) in Petri dishes. The cell growth was monitored under a microscope, and part of the material was used in the next stage of the experiment. Then, the cells were separated from the bottom (the surface proteins present on the plasma membrane allowing adhesion were destroyed) and were collected from the culture vessel. Then, in a Bürker chamber, the cell density was counted using a drop of cell suspension in a mixture ratio of 1:1 with trypan blue.
Then, a 96-well microtiter plate assay was performed with 100 μL of cells (5 × 10^4/mL) in a cultivation solution followed, after 24 h, by the addition of 100 μL of a solution of the tested compound (10^−3, 10^−4, 10^−5, or 10^−6 M) in the same medium. Plates were incubated at 37 °C in a humidified atmosphere saturated with 5% CO2. The in vitro cytotoxicities of all agents were examined by colorimetric MTT assay after 72 h of exposure of the cultured cells to varying concentrations of the tested compounds [32]. Briefly, 20 μL of the MTT solution (MTT: 3-(4,5-dimethylthiazol-2-yl)-2,5-diphenyl tetrazolium bromide) was added to each well and incubated for 4 h. After the incubation period was completed, 80 μL of the lysing mixture was added to each well (lysing mixture: 225 mL dimethylformamide, 67.5 g sodium dodecyl sulfate and 275 mL of distilled water). The optical densities of the samples were determined after 24 h using a Multiskan RC photometer (Labsystems, Helsinki, Finland) at 570 nm.

c1c[nH]nn1 [1,2,3-triazole]
pK of triazole ([1]; unsubstituted triazole): 9.26

c1nc[nH]n1 [1,2,4-triazole]
pK of triazole ([1]; unsubstituted triazole): 9.95

OCCCn1cc(-c2ccccn2)nn1 [3-(4-(pyridine-2-yl)-1H-1,2,3-triazol-1-yl-propan-1-ol]
pK of triazole ([1]; 1,2,3-triazole-pyridines, previously reported): 3.40

Nc1nc[nH]n1 [3-amino-1,2,4-triazole]
pK of triazole ([1]; substituted triazole, previously reported): 4.20

O=P(O)(O)C(Nc1nc[nH]n1)P(=O)(O)O [Compound 1, 1,2,4-Triazolyl-3-yl-Aminomethylenebisphosphonic Acid]
pK1(HL) amine [2]: 11.52(3)
pK2(H2L) phosphonate [2]: 9.62(3)
pK3(H3L) phosphonate [2]: 6.54(4)
pK5(H5L) phosphonate [2]: 1.48(4)
pK2(H2L) phosphonate ([2]; listed as compound 1): 9.62
pK3(H3L) phosphonate ([2]; listed as compound 1): 6.54
pK4(H4L) triazole ([2]; listed as compound 1): 4.22
pK5(H5L) phosphonate ([2]; listed as compound 1): 1.48
pK1(HL) amine [3]: 11.68(2)
pK2(H2L) phosphonate [3]: 9.32(5)
pK3(H3L) phosphonate [3]: 6.15(6)
pK4(H4L) triazole [3]: 4.16(6)
pK5(H5L) phosphonate [3]: 0.67(6)
pK4(H4L) triazole ([3]; listed as compound 1): 4.16
IC50 [4]: 25 µM
IC50 ([4]; Mus musculus, Macrophage, 72 h): 24.9 ± 5.17 µM

CCn1cnc(NC(P(=O)(O)O)P(=O)(O)O)n1 [Compound 2]
pK1(HL) amine [2]: 10.81(1)
pK2(H2L) phosphonate [2]: 9.43(1)
pK3(H3L) phosphonate [2]: 6.73(1)
pK5(H5L) phosphonate [2]: 1.69(1)
pK2(H2L) phosphonate [3]: 9.56(2)
pK3(H3L) phosphonate [3]: 5.90(2)
pK4(H4L) triazole [3]: 3.32(2)
pK4(H4L) triazole ([3]; listed as compound 2): 3.32
IC50 ([4]; Mus musculus, Macrophage, 72 h): 30.6 ± 4.64 µM

O=P(O)(O)C(NC1CCCCCC1)P(=O)(O)O [incadronic acid, reference compound]
IC50 ([4]; Mus musculus, Macrophage, 72 h): 47.9 ± 1.39 µM

O=P(O)(O)C(O)(Cn1ccnc1)P(=O)(O)O [zoledronic acid, reference compound]
IC50 ([4]; Mus musculus, Macrophage, 72 h): 24.5 ± 2.23 µM

From PMC6155913, “Reaction of 3-Amino-1,2,4-Triazole with Diethyl Phosphite and Triethyl Orthoformate: Acid-Base Properties and Antiosteoporotic Activities of the Products” (Molecules : A Journal of Synthetic Chemistry and Natural …, 2017)
